Measured values: article PMC10510102, “Efficient Ligand Discovery Using Sulfur(VI) Fluoride Reactive Fragments” (ACS Chemical Biology, 2023)
Where “and” joins values, the source holds several entries; their conditions need not be identical. Equal entries are not always repeated. Entries after “also recorded” stand apart in the source; their conditions may differ.

Columns and labels:
HEK293T cells = experiment: Chemoproteomic profiling, proteins enriched by alkyne probes; assay type: cell-based, human; conditions: 10 μM probe, 1 h; log2 ratio ≥0.58, p-value ≤0.05, #unique peptides ≥2
Experimental: (§1) HEK293T cells were treated for 1 h with probes 2j, 2k, or 2l (10 μM) or the DMSO vehicle. Competition-based experiments were also conducted where cells were pretreated with parent hits 2d (40 μM) or 2e (40 μM) for 1 h, before the addition of alkyne-containing probes 2j (10 μM) or 2k (10 μM), respectively. Following incubation, treated cells were lysed and conjugated with biotin-azide by Cu-click, and biotinylated proteins were enriched using NeutrAvidin beads. Enriched proteins were digested with LysC and trypsin, prior to analysis by LC–MS/MS (Figure 4b). […]
(§2) 6.2. Chemoproteomics workflow
(§3) Acetylation of NeutrAvidin agarose slurry:
(§4) NeutrAvidin agarose slurry (10 mL) (Thermo Fisher Scientific, 29204) was centrifuged (2 min, 2000 rpm) prior to removal of the supernatant. The beads were washed three times with PBS. PBS (9 mL) and Sulfo-NHS-acetate (482 μL, 400 mM in DMSO) (Thermo Fisher Scientific, 26777) were added, the beads were incubated at room temperature for 30 min on a falcon tube roller, and then centrifuged (2 min, 2000 rpm). Supernatant was removed and the incubation step with freshly made NHS-acetate was repeated. The reaction was quenched by adding Tris (2 mL, 1 M, pH 7.5). The beads were washed once with PBS and twice with 20% EtOH. 20% EtOH (5 mL) was added, and the beads were stored at 4 °C.
Chemoproteomics workflow:
HEK293T cell line (human origin, The Francis Crick Institute cell service) was used for this study. The cells were maintained at 37 °C with 5% CO2 in DMEM media supplemented with 10% fetal bovine serum and 1% L-Glutamine–Penicillin–Streptomycin solution (200 mM L-glutamine, 10,000 U/mL penicillin and 10 mg/mL streptomycin).
HEK293T cells were treated in triplicate with the parent compounds 2d and 2e (40 μM final concentration) or DMSO vehicle for 1 h at 37 °C in serum free media followed by a 1 h treatment with the probes 2j, 2k and 2l (10 μM final concentration) or DMSO vehicle.
(§5) Media was removed and cells were washed with PBS. […] Protein concentration of each lysate was determined using a BCA assay (Thermo Fisher Scientific, 23227). […]

CAII [1] = target: T1, CAII (Homo sapiens, UniProt P00918); experiment: Single shot screen of chemoproteomic probes, intact protein LC-MS; assay type: binding; design: purchased Sigma Aldrich C6624-500UG; host or cells: E. coli; conditions: 1 μM CAII, 50 μM SF, 4 °C, 24 h
From the text: Hits from the CAII screen were progressed to chemoproteomic profiling to determine cellular target engagement and to measure their off-target profiles. SFs 2d and 2e were functionalized with an alkyne handle at the linking amide group to give probes 2j and 2k. A structurally similar negative control was also designed by substitution of the sulfonamide for a methoxy group, 2l (Figure 4a). […] The proteins engaged by these three probes were subsequently studied in HEK293T cells. […]
6.1. Single shot screen of chemoproteomic probes against CAII
The (synthesized and purified) active probes 2j, and 2k, as well as negative control 2l, were plated into a Greiner 384 white low volume plate from a 10 mM source in DMSO. Purified CAII diluted from original stock into a buffer made up of HEPES (pH 7.5, 25 mM) and NaCl (50 mM) in distilled MS-grade water (15 µL per well) was subsequently added across the plate. Final concentrations: 1 µM protein; 50 µM SF. The plate was sealed, centrifuged (1 min, 1000 rpm), incubated at 4 °C for 24 h, and subsequently analyzed by intact protein LC-MS. Modification yields were measured as 78% for 2j and 95% for 2k.
6.2. Chemoproteomics workflow […]
Chemoproteomics workflow: […]
Samples were incubated with acetylated NeutrAvidin agarose slurry (100 µL) (pre-washed three times with 0.2% SDS in HEPES (50 mM, pH 8.0)) on a combinatorial microlute plate (Porvair, 240002) for 2 h. The plate was centrifuged (1 min, 700 g) to remove supernatants.
The beads were washed three times with lysis buffer and 0.2% SDS in HEPES (50 mM, pH 8.0). The proteins were digested on-bead overnight at 37 °C with LysC (60 μL, 0.004 μg/μL) in HEPES (50 mM, pH 8.0). The supernatants were collected (1 min, 700 g) on a fresh plate and trypsin (30 μL, 0.006 μg/μL) in HEPES (50 mM, pH 8.0) was added to each sample. The samples were incubated for 4 h at 37 °C and acidified with 20% formic acid (10 μL).
The peptide samples were cleaned-up using C18 96-well plate (BioPureSPE Macro 96-Well, 100 mg PROTO C18, The Nest Group). The wells were conditioned with acetonitrile (300 μL) (centrifuged for 1 min at 50 g) and equilibrated twice with 0.1% TFA (300 μL) (centrifuged for 1 min at 150 g). 0.1% TFA (100 μL) was added to digest samples, and these were subsequently loaded on the plate (centrifuged for 1 min at 150 g). The samples were washed twice with 0.1% TFA (200 μL) (centrifuged for 1 min at 150 g). The plate was centrifuged once more at 200 g for 1 min. The peptides were eluted in two steps with 0.1% TFA (150 μL) in 50% acetonitrile

CAII [2] = target: T1, CAII; experiment: Chemoproteomic target engagement of CAII in cells; assay type: cell-based; conditions: HEK293T cells, 10 μM probe, 1 h, vs DMSO
Experimental: as §1, §2, §3
as §4, with “The beads were washed once with PBS and twice with 20% EtOH. 20% EtOH (5 mL) was added, and the beads were stored at 4 °C.” left out
as §5

BCL6 = test system: BCL6; design: method as in PMID 34274316; conditions: cited from earlier work
BCL6 BTB/POZ domain = BCL6 BTB/POZ domain (Homo sapiens, UniProt P41182, C67R/C84N/C8Q); experiment: Conventional differential scanning fluorimetry (DSF); assay type: binding; design: hBCL6-Flag 3Cmut (5-129) produced in house; FLAG (C); made in house
Experimental: We subsequently analyzed protein-fragment interactions using differential scanning fluorimetry (DSF) to explore the impact of these binding events on protein stability.[45] […] […]; this illustrates the impact of covalent modification on protein–ligand binding. […]
8.2. Conventional differential scanning fluorimetry (DSF)
BCL6-SF covalent complex preparation:
SFs 2f–i, 2p, 2q, 2s, and 2t in DMSO-d 6 (200 mM stock) or pure DMSO-d 6 were added to crystallizable BCL6 BTB/POZ domain (10 µM) in 20 mM Tris pH 8.5 and 200 mM NaCl. The reactions were incubated at 20 °C for 6 h (meta-substituted benzamide fragments) or 24 h (azetidinyl/piperidinyl fragments). Final concentrations: 10 µM protein, 500 µM SF, DMSO 0.25% v/v in 200 µL. Unreacted compound and DMSO-d 6 were removed by buffer-exchanging protein solutions into 20 mM Tris pH 8.5, 200 mM NaCl and 5% v/v glycerol inside Vivaspin 500 PES Centrifugal Concentration units. The protein was concentrated to 0.6–1.3 mg/mL within the units, according to UV-vis absorption spectrophotometry via a Nanodrop ND-1000 instrument. Protein was flash frozen using a dry ice/ethanol bath prior to […]
Differential scanning fluorimetry assay:
GSK137 (40 mM stock) or pure DMSO-d 6 were added to crystallizable BCL6 BTB/POZ domain (11 µM) in 20 mM Tris pH 8.5, 200 mM NaCl and 5% v/v glycerol to give solutions containing: 11 µM protein, DMSO 0.63% v/v and 222 µM GSK137 (where applicable).
Concentrated protein-SF complexes were also thawed and diluted to 11 µM in 20 mM Tris pH 8.5, […] and 5% v/v glycerol.
SYPRO Orange dye (Invitrogen S6650) in extra dilution buffer (50×, eq. 1% v/v DMSO) was added to give assay-ready solutions with final concentrations: 10 µM protein, SYPRO 5×, DMSO 0.1% v/v in volume 80 µL for the protein-SF covalent complexes or 10 µM protein, SYPRO 5×, DMSO 0.6% v/v in volume 100 µL with and without 200 µM GSK137.
Each solution was aliquoted (3 × 20 µL) into wells of an opaque 384-well PCR microplate (Axygen PCR-384-LC480-W) and coated with silicone oil DC 200 (5 µL; Fluka Chemicals 85413). The microplate was centrifuged (1 min, 200 g) prior to insertion into a Fluodia T70 spectrophotometer (Photal Instruments). The fluorescence intensity was detected (emission wavelength: […]) as the plate instrument interior was heated from 27–75 °C using a temperature stepping mode (waiting time before measurement: 60 s; fluorescence measurement interval: 45 s). The approximate temperature gradient was 0.5 °C min-1.
The fluorescence intensity data from the individual replicates of each sample type were normalized and identically truncated within GraphPad Prism 5.0.4.11 These values were subsequently fitted to equation (4) corresponding to a Boltzmann sigmoid in order to obtain the melting temperature (“V50”; T m) of the protein:
Y=BOTTOM+((TOP+BOTTOM)/(1+exp((V50–X)/SLOPE))) (4)
The three obtained T m values were averaged to give a final T m value in each case. The normalized fluorescence data for the three replicates of each sample were averaged to yield a single dataset for each case, which were then plotted in GraphPad Prism 5.0.4 to give the plots shown in the manuscript.11
Table S9. Thermal melting temperatures of unmodified and covalently modified BCL6 BTB/POZ domain as determined by differential scanning fluorimetry measurements.
The arithmetic mean and standard deviation from three replicates are shown.
Hit Chemotype Protein Species Tm / °C ΔT m / °C […]
meta-Substituted Benzamide BCL6 + 2g 70.4 ± 0.3 +11.7
Azetidinyl Fragments BCL6 + 2h 55.5 ± 0.1 −3.2 […]
8.3. Protocol for kinetic analyzes (BCL6)
The (resynthesized and purified) SF hits (2f–i) were plated into seven Greiner 384 white low volume plate from a 10 mM source in DMSO. Differing volumes were added such that the final concentrations for each compound would be: 100, 50, 20, 10, or 5 µM after adding 15 µL of protein stock solution per well. […]

| Tm (BCL6 BTB/POZ domain; 10 μM protein, covalent complex (500 μM SF, 6 or 24 h) or 200 μM GSK137, mean ± SD, three replicates) [°C] | ΔTm (BCL6 BTB/POZ domain; relative to unmodified BCL6) | Structure (SMILES) | number of proteins enriched by comparison to DMSO control (HEK293T cells) | covalent modification of purified CAII (CAII [1]) | modification yield (CAII [1]) [%] | enrichment of CAII (CAII [2]) | biochemical pIC50 (BCL6) |
| --- | --- | --- | --- | --- | --- | --- | --- |
| – | – | C#CCN(CCc1ccc(S(N)(=O)=O)cc1)C(=O)Cc1ccc(S(=O)(=O)F)cc1 [2k] | 501 | covalently modified CAII | 95 | some enrichment | – |
| > 72 | > 12.3 °C and ~12 °C | Cc1ncccc1[C@H]1C[C@@H](c2cccc3nc(N)ccc23)Nc2c(F)cnn21 [GSK137, reference compound] | – | – | – | – | 8 |
| – | – | C#CCN(Cc1cccc(OC)c1)C(=O)Cc1ccc(S(=O)(=O)F)cc1 [2l] | 447 | Negligible modification; also recorded: did not | – | – | – |
| – | – | C#CCN(Cc1cccc(S(N)(=O)=O)c1)C(=O)Cc1ccc(S(=O)(=O)F)cc1 [2j] | 523 | covalently modified CAII | 78 | some enrichment | – |
